Assay results reported in PubChem BioAssay AID330 (DTP/NCI, 2004).
Where “and” joins values, the source holds several entries; their conditions need not be identical. Equal entries are not always repeated. Inconclusive results and toxic doses are left out.

Tested on: P388 leukemia ip, CD2F1 mice, survival T/C
Assay: NCI In Vivo Anticancer Drug Screen. Data for tumor model P388 Leukemia (intraperitoneal) in CD2F1 (CDF1) mice
Details: endpoint: median survival time, higher = longer survival
Outline: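 Mice carrying the transplanted tumor received test compound or vehicle. Survival was recorded in each group, and the value is the treated-group measurement divided by that of the vehicle-treated control group.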

[1] = dose: 12.5 mg/kg/injection, schedule: Q01DX009 (ip), vehicle: saline with Tween-80
[2] = dose: 25.0 mg/kg/injection, schedule: Q01DX009 (ip), vehicle: saline with Tween-80
[3] = dose: 50.0 mg/kg/injection, schedule: Q01DX009 (ip), vehicle: saline with Tween-80
[4] = dose: 50.0 mg/kg/injection, schedule: Q01DX005 (ip), vehicle: Klucel (hydroxypropylcellulose) (HPC)
[5] = dose: 100.0 mg/kg/injection, schedule: Q01DX005 (ip), vehicle: Klucel (hydroxypropylcellulose) (HPC)
[6] = dose: 100.0 mg/kg/injection, schedule: Q01DX009 (ip), vehicle: Klucel (hydroxypropylcellulose) (HPC)
[7] = dose: 200.0 mg/kg/injection, schedule: Q01DX009 (ip), vehicle: Klucel (hydroxypropylcellulose) (HPC)
[8] = dose: 50.0 mg/kg/injection, schedule: Q01DX005 (ip), vehicle: saline with Tween-80
[9] = dose: 100.0 mg/kg/injection, schedule: Q01DX005 (ip), vehicle: saline with Tween-80
[10] = dose: 60.0 mg/kg/injection, schedule: Q01DX005 (ip), vehicle: saline with Tween-80
[11] = dose: 120.0 mg/kg/injection, schedule: Q01DX005 (ip), vehicle: saline with Tween-80
[12] = dose: 240.0 mg/kg/injection, schedule: Q01DX005 (ip), vehicle: saline with Tween-80
[13] = dose: 100.0 mg/kg/injection, schedule: Q01DX009 (ip), vehicle: saline with Tween-80
[14] = dose: 200.0 mg/kg/injection, schedule: Q01DX009 (ip), vehicle: saline with Tween-80
[15] = dose: 100.0 mg/kg/injection, schedule: Q01DX001 (ip), vehicle: Klucel (hydroxypropylcellulose) (HPC)
[16] = dose: 200.0 mg/kg/injection, schedule: Q01DX001 (ip), vehicle: Klucel (hydroxypropylcellulose) (HPC)
[17] = dose: 400.0 mg/kg/injection, schedule: Q01DX001 (ip), vehicle: Klucel (hydroxypropylcellulose) (HPC)
[18] = dose: 200.0 mg/kg/injection, schedule: Q01DX005 (ip), vehicle: Klucel (hydroxypropylcellulose) (HPC)

In the case of CCOC(=O)C12CCC(C(=O)OCC)(CC13SCCS3)C1(C2)SCCS1, the T/C (dose: 100.0 mg/kg/injection, schedule: Q01DX001 (ip), vehicle: saline with Tween-80) is reported as 97 % of control, the T/C (dose: 200.0 mg/kg/injection, schedule: Q01DX001 (ip), vehicle: saline with Tween-80) is reported as 99 % of control and the T/C (dose: 400.0 mg/kg/injection, schedule: Q01DX001 (ip), vehicle: saline with Tween-80) is reported as 97 % of control.

For COC(=O)c1c(C)cc(OC(=O)c2c(C)cc(O)c(C=O)c2O)c(C)c1O, the T/C (dose: 0.25 mg/kg/injection, schedule: Q01DX009 (ip), vehicle: saline with Tween-80) was 104 % of control, the T/C (dose: 0.5 mg/kg/injection, schedule: Q01DX009 (ip), vehicle: saline with Tween-80) was 92 % of control and the T/C (dose: 1.0 mg/kg/injection, schedule: Q01DX009 (ip), vehicle: saline with Tween-80) was 104 % of control. For the same compound, the T/C (dose: 50.0 mg/kg/injection, schedule: Q01DX009 (ip), vehicle: saline) was 95 % of control, the T/C (dose: 100.0 mg/kg/injection, schedule: Q01DX009 (ip), vehicle: saline) was 90 % of control and the T/C (dose: 200.0 mg/kg/injection, schedule: Q01DX009 (ip), vehicle: saline) was 95 % of control.

For CCOC(=O)C(c1ccccc1)(S(C)(=O)=O)S(C)(=O)=O, the T/C [1] was 108 % of control, the T/C [2] was 112 % of control and the T/C [3] was 104 % of control.

CCOC(=O)c1c(C)c2c(n1Cc1ccccc1)CCCC2=O was tested, and the T/C (dose: 100.0 mg/kg/injection, schedule: Q04DX003 (ip), vehicle: Klucel (hydroxypropylcellulose) (HPC)) was 99 % of control, the T/C (dose: 200.0 mg/kg/injection, schedule: Q04DX003 (ip), vehicle: Klucel (hydroxypropylcellulose) (HPC)) was 97 % of control and the T/C (dose: 400.0 mg/kg/injection, schedule: Q04DX003 (ip), vehicle: Klucel (hydroxypropylcellulose) (HPC)) was 98 % of control.

In the case of N#Cc1nnn(-c2ccc(Cl)cc2)c1N, the T/C [4] is reported as 99 % of control and the T/C [5] is reported as 97 % of control.

In the case of O=C(O)C(S)c1ccc2ccccc2c1 (stereo not given), the T/C [6] is reported as 90 % of control and the T/C [7] is reported as 100 % of control.

O=[N+]([O-])c1ccc(-c2ncc(-c3ccc(Br)cc3)o2)cc1 was tested, and the T/C (dose: 60.0 mg/kg/injection, schedule: Q01DX005 (ip), vehicle: Klucel (hydroxypropylcellulose) (HPC)) was 108 % of control, the T/C (dose: 120.0 mg/kg/injection, schedule: Q01DX005 (ip), vehicle: Klucel (hydroxypropylcellulose) (HPC)) was 107 % of control and the T/C (dose: 240.0 mg/kg/injection, schedule: Q01DX005 (ip), vehicle: Klucel (hydroxypropylcellulose) (HPC)) was 110 % of control.

In the case of COc1cc(OCc2ccc(OCc3ccccc3)cc2)cc(OC)c1OC, the T/C [8] is reported as 93 % of control, the T/C [9] is reported as 105 % of control and the T/C (dose: 200.0 mg/kg/injection, schedule: Q01DX005 (ip), vehicle: saline with Tween-80) is reported as 95 % of control.

In the case of COC(=O)C1=C(C(=O)OC)C23C(=O)c4ccc(OC)c(OC)c4C1N2CCc1cc2c(cc13)OCO2 (stereo not given), the T/C (dose: 50.0 mg/kg/injection, schedule: Q04DX002 (ip), vehicle: saline with Tween-80) is reported as 94 % of control, the T/C (dose: 100.0 mg/kg/injection, schedule: Q04DX002 (ip), vehicle: saline with Tween-80) is reported as 102 % of control and the T/C (dose: 200.0 mg/kg/injection, schedule: Q04DX002 (ip), vehicle: saline with Tween-80) is reported as 100 % of control.

CCCCCOC(CN(C)C)C(Cl)(Cl)Cl (stereo not given) was tested, and the T/C (dose: 50.0 mg/kg/injection, schedule: Q01DX009 (ip), vehicle: Klucel (hydroxypropylcellulose) (HPC)) was 100 % of control, the T/C [6] was 100 % of control and the T/C [7] was 101 % of control.

In the case of CCC[N+]1=C/c2ccccc2OC(=O)/C=C\1[O-], the T/C [10] is reported as 101 % of control, the T/C [11] is reported as 99 % of control and the T/C [12] is reported as 100 % of control.

In the case of COc1ccc(Cl)cc1NC(=O)Oc1ccncc1, the T/C (dose: 0.78 mg/kg/injection, schedule: Q01DX009 (ip), vehicle: saline with Tween-80) is reported as 94 % of control, the T/C (dose: 1.56 mg/kg/injection, schedule: Q01DX009 (ip), vehicle: saline with Tween-80) is reported as 88 % of control and the T/C (dose: 3.12 mg/kg/injection, schedule: Q01DX009 (ip), vehicle: saline with Tween-80) is reported as 87 % of control and 88 % of control. The T/C (dose: 6.25 mg/kg/injection, schedule: Q01DX009 (ip), vehicle: saline with Tween-80) was 86 % of control, the T/C [1] was 88 % of control and the T/C [3] was 87 % of control. The T/C [13] was 101 % of control and the T/C [14] was 94 % of control.

c1cnc2nc3c4ccccc4c4ccccc4c3nc2c1 was tested, and the T/C [3] was 104 % of control and 94 % of control, the T/C [13] was 104 % of control and 122 % of control and 93 % of control and the T/C [14] was 101 % of control and 110 % of control and 86 % of control.

In the case of COc1ccc([N+](=O)[O-])cc1Nc1c2ccccc2nc2ccccc12, the T/C (dose: 50.0 mg/kg/injection, schedule: Q01DX009 (ip), vehicle: suspension in saline) is reported as 100 % of control, the T/C (dose: 100.0 mg/kg/injection, schedule: Q01DX009 (ip), vehicle: suspension in saline) is reported as 110 % of control and the T/C (dose: 200.0 mg/kg/injection, schedule: Q01DX009 (ip), vehicle: suspension in saline) is reported as 101 % of control.

For CCCCOn1nnc2ccccc21, the T/C [1] was 94 % of control, the T/C [2] was 103 % of control and the T/C [3] was 100 % of control and 97 % of control. For the same compound, the T/C [13] was 101 % of control and the T/C [14] was 113 % of control.

CN=NNc1ccc(C#N)cc1 was tested, and the T/C [15] was 98 % of control, the T/C [16] was 98 % of control and the T/C [17] was 95 % of control.

For Clc1nccc2c1ncn2[Te]n1cnc2c(Cl)nccc21, the T/C (dose: 12.5 mg/kg/injection, schedule: Q04DX002 (ip), vehicle: saline) was 105 % of control and the T/C (dose: 25.0 mg/kg/injection, schedule: Q04DX002 (ip), vehicle: saline) was 103 % of control.

For COc1ccc(/C(=C(\c2ccccc2)[N+](=O)[O-])c2ccc(OCCN3CCCC3)cc2)cc1, the T/C [2] was 104 % of control and the T/C [3] was 100 % of control.

In the case of NC1CCCCCCC1O (stereo not given), the T/C (dose: 5.0 mg/kg/injection, schedule: Q01DX009 (ip), vehicle: saline with Tween-80) is reported as 104 % of control, the T/C (dose: 5.0 mg/kg/injection, schedule: Q04DX003 (ip), vehicle: saline) is reported as 104 % of control and the T/C (dose: 10.0 mg/kg/injection, schedule: Q01DX009 (ip), vehicle: saline with Tween-80) is reported as 100 % of control. For the same compound, the T/C (dose: 10.0 mg/kg/injection, schedule: Q04DX003 (ip), vehicle: saline) was 100 % of control, the T/C (dose: 20.0 mg/kg/injection, schedule: Q01DX009 (ip), vehicle: saline with Tween-80) was 104 % of control and the T/C (dose: 20.0 mg/kg/injection, schedule: Q04DX003 (ip), vehicle: saline) was 100 % of control.

For CN(C)/N=N/c1nc[nH]c1C(N)=O, the T/C (dose: 12.5 mg/kg/injection, schedule: Q01DX005 (ip), vehicle: Klucel (hydroxypropylcellulose) (HPC)) was 95 % of control, the T/C (dose: 25.0 mg/kg/injection, schedule: Q01DX005 (ip), vehicle: Klucel (hydroxypropylcellulose) (HPC)) was 105 % of control and the T/C [2] was 123 % of control. For the same compound, the T/C [4] was 105 % of control, the T/C [8] was 106 % of control and the T/C [3] was 120 % of control. For the same compound, the T/C [5] was 115 % of control, the T/C [9] was 119 % of control and the T/C [13] was 120 % of control. The T/C (dose: 150.0 mg/kg/injection, schedule: Q01DX005 (ip), vehicle: distilled water + Tween-80) was 166 % of control, the T/C [18] was 122 % of control and the T/C [14] was 103 % of control. For the same compound, the T/C (dose: 300.0 mg/kg/injection, schedule: Q01DX005 (ip), vehicle: distilled water + Tween-80) was 156 % of control, the T/C (dose: 400.0 mg/kg/injection, schedule: Q01DX005 (ip), vehicle: saline with Tween-80) was 121 % of control and the T/C (dose: 400.0 mg/kg/injection, schedule: Q01DX009 (ip), vehicle: saline with Tween-80) was 86 % of control.

For [NH-][n+]1c2c(nc3ccccc31)-c1cccc3cccc-2c13, the T/C [4] was 103 % of control, the T/C [15] was 97 % of control and the T/C [5] was 112 % of control. For the same compound, the T/C [16] was 100 % of control, the T/C [18] was 105 % of control and the T/C [17] was 102 % of control.

CSc1nc(NC2OCC(OC(C)=O)C(OC(C)=O)C2OC(C)=O)c(N=C(C)C(C)=O)c(=O)[nH]1 (stereo not given) was tested, and the T/C [10] was 95 % of control, the T/C [11] was 108 % of control and the T/C [12] was 95 % of control.

For CCC[CH2][Sn]([CH2]CCC)([O]C(=O)CCC(C)=O)[O]C(=O)CCC(C)=O, the T/C (dose: 3.12 mg/kg/injection, schedule: Q01DX009 (ip), vehicle: Klucel (hydroxypropylcellulose) (HPC)) was 118 % of control and 119 % of control and the T/C (dose: 12.5 mg/kg/injection, schedule: Q01DX009 (ip), vehicle: Klucel (hydroxypropylcellulose) (HPC)) was 163 % of control.

With Cn1c(N2CCOCC2)cc2nc3ccccc3n2c1=O the T/C [10] was 96 % of control, the T/C [11] was 98 % of control and the T/C [12] was 96 % of control.
